The source of these data is patent publication US10947213B1 (Merck Patent GmbH, priority 2015, dated 2021).

SMILES strings stand for the structures. Structures can show the parent of a compound that is named as a salt. Some results are limits rather than exact numbers.

This experiment addresses T1, TLR7/NFKb HEK cells (Homo sapiens, UniProt Q9NYK1).
T1 construct: expressed in transfected cells; host or cells: HEK cells (TLR7/NFKb reporter line)
T1 sequence (Q9NYK1 27-1049): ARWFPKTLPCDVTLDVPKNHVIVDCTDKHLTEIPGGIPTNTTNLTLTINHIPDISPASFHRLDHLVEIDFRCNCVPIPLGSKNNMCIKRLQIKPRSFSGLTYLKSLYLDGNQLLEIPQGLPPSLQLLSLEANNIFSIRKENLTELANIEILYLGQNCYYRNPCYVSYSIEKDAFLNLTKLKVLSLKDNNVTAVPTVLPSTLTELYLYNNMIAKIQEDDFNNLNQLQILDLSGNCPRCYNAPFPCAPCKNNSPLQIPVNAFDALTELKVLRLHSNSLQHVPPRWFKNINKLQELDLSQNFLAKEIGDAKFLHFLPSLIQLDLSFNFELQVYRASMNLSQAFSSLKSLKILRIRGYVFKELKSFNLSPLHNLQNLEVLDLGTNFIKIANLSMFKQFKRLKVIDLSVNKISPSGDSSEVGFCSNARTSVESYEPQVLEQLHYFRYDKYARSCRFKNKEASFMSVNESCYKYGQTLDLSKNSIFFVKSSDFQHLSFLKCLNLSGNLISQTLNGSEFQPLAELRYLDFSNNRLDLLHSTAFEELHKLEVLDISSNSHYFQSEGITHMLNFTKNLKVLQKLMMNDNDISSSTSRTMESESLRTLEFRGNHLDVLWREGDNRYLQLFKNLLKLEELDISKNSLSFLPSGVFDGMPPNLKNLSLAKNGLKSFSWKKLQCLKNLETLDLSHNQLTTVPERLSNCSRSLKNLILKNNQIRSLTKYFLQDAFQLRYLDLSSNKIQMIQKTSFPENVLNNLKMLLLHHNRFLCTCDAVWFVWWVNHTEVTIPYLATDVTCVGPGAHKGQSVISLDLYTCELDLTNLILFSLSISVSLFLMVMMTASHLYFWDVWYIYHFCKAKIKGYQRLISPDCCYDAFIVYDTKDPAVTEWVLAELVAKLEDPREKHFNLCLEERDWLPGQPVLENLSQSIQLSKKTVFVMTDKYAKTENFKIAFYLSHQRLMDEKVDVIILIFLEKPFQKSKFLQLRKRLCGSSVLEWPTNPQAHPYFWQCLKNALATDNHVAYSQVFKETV
Description: HEK Cell Assay (TLR7/NFKb reporter, Steady-Glo luciferase readout). In kind it is cell-based. The conditions noted are these: 30 min compound preincubation, then R*48 agonist for 5 hours, read-out: Potency. In short, it runs like this:
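Steady-Glo luminescence after 5 h stimulation with R*48 agonist, following 30 min compound preincubation. Assay run in HEK cells carrying a TLR7/NFKb luciferase reporter, plated at 5000 cells/well and grown 24 h at 37° C (10% CO2) before treatment.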
In the case of `C[C@H]1C[C@@H](NC2CCN(C)C2=O)CN(c2ccc(Cl)c3ncccc23)C1` (single isomer, unassigned) [Compound 261], the IC50 is under 1 µM.

As to `N#Cc1ccc(N2CC(N)CC(C3CC3)C2)c2nccnc12` (single isomer, unassigned) [Compound 70, 8-(3-amino-5-cyclopropylpiperidin-1-yl)quinoxaline-5-carbonitrile], the IC50 was under 1 µM.

Turning to `CCN(CC)CCNC(=O)C1CCN(c2ccc(C#N)c3ncncc23)CC1` [Compound 397, 1-(8-Cyano-quinazolin-5-yl)-piperidine-4-carboxylic acid (2-diethylamino-ethyl)-amide], the IC50 lay in the range of 1 to 10 µM.

As to `C[C@H]1C[C@@H](NC(=O)Cc2c[nH]cn2)CN(c2ccc(C#N)c3nccnc23)C1` [Compound 130, N-[(3R,5S)-1-(8-cyanoquinoxalin-5-yl)-5-methylpiperidin-3-yl]-2-(1H-imidazol-4-yl)acetamide hydrochloride], the IC50 is under 1 µM.

As to `CC(O)C(=O)N[C@@H]1C[C@H](C)CN(c2ccc(C(F)(F)F)c3ncccc23)C1` (stereo partly drawn) [Compound 278, 2-hydroxy-N-[(3R,5S)-5-methyl-1-[8-(trifluoromethyl)quinolin-5-yl]piperidin-3-yl]propanamide], the IC50 is under 1 µM.

In the case of `CCN(CC)CCNCC1CCN(c2c(C)c(C)nc3ccc(F)cc23)CC1` [Compound 385, N,N-Diethyl-N′-[1-(6-fluoro-2,3-dimethyl-quinolin-4-yl)-piperidin-4-ylmethyl]-ethane-1,2-diamine], the IC50 lay in the range of 1 to 10 µM.

In the case of `C[C@H]1C[C@@H](NC(=O)CC2C3CC2CN(C)C3)CN(c2ccc(C#N)c3nccnc23)C1` (single isomer, unassigned) [Compound 357], the IC50 is under 1 µM.

For `C[C@H]1C[C@@H](NC(=O)Cn2cccn2)CN(c2ccc(C#N)c3nccnc23)C1` [Compound 169, N-[(3R,5S)-1-(8-cyanoquinoxalin-5-yl)-5-methylpiperidin-3-yl]-2-(1H-pyrazol-1-yl)acetamide], the IC50 was under 1 µM.

As for `CC(C)(C(=O)N[C@@H]1C[C@H](C(F)(F)F)CN(c2ccc(C#N)c3ncccc23)C1)N1CCCCC1` [Compound 576, N-[(3R,5S)-1-(8-Cyano-quinolin-5-yl)-5-trifluoromethyl-piperidin-3-yl]-2-piperidin-1-yl-isobutyramide], the IC50 is under 1 µM.

With `CN1CCN(CC(=O)N[C@H]2C[C@@H](C3CC3)CN(c3ccc(C(F)(F)F)c4ncccc34)C2)CC1` (racemic) [Compound 338, cis-N-[5-cyclopropyl-1-[8-(trifluoromethyl)quinolin-5-yl]piperidin-3-yl]-2-(4-methylpiperazin-1-yl)acetamide], the IC50 was under 1 µM.

For the molecule `C[C@H]1C[C@@H](NC(=O)C2(O)CC2)CN(c2ccc(C(F)(F)F)c3nccnc23)C1` [Compound 251, 1-hydroxy-N-[(3R,5S)-5-methyl-1-[8-(trifluoromethyl)quinoxalin-5-yl]piperidin-3-yl]cyclopropane-1-carboxamide], the IC50 lay within 1 to 10 µM.

On to `C[C@H]1C[C@@H](NC(=O)CN2CC(O)C2)CN(c2ccc(C#N)c3nccnc23)C1` [Compound 270], for which the IC50 was under 1 µM.

With `CN(C)CC(=O)N[C@H]1C[C@@H](C2CC2)CN(c2ccc(C#N)c3nccnc23)C1` (relative stereo) [Compound 179, cis-N-[1-(8-cyanoquinoxalin-5-yl)-5-cyclopropylpiperidin-3-yl]-2-(dimethylamino)acetamide], the IC50 was in the range of 1 to 10 µM.

In the case of `C[C@H]1C[C@@H](NC(=O)CC2CCN(C)C2)CN(c2ccc(C(F)(F)F)c3nccnc23)C1` (stereo partly drawn) [Compound 295, N-[(3R,5S)-5-methyl-1-[8-(trifluoromethyl)quinoxalin-5-yl]piperidin-3-yl]-2-(1-methylpyrrolidin-3-yl)acetamide], the IC50 was under 1 µM.

Regarding `CC(C(=O)N[C@@H]1C[C@H](C)CN(c2ccc(C(F)F)c3nccnc23)C1)N1CC(F)(F)C1` (stereo partly drawn) [Compound 323, 2-(3,3-difluoroazetidin-1-yl)-N-[(3R,5S)-1-[8-(difluoromethyl)quinoxalin-5-yl]-5-methylpiperidin-3-yl]propanamide], the IC50 was 1 to 10 µM.

With `C[C@H]1C[C@@H](NC(=O)CC(C)(C)C)CN(c2c(F)cc(C#N)c3nccnc23)C1` [Compound 343, N-[(3R,5S)-1-(8-cyano-6-fluoroquinoxalin-5-yl)-5-methylpiperidin-3-yl]-3,3-dimethylbutanamide], the IC50 lay within 1 to 10 µM.

For the molecule `N#Cc1ccc(N2CCC(C(=O)NCCN3CCC3)CC2)c2cccnc12` [Compound 439, 1-(8-Cyano-quinolin-5-yl)-piperidine-4-carboxylic Acid (2-azetidin-1-yl-ethyl)-amide], the IC50 is under 1 µM.

As to `CCN(CC)CCNC(=O)C1CCN(c2ccc(C#N)c3ncccc23)CC1` [Compound 407, 1-(8-Cyano-quinolin-5-yl)-piperidine-4-carboxylic acid (2-diethylamino-ethyl)-amide], the IC50 is under 1 µM.

Turning to `CC(Cl)C(=O)NC1CN(c2ccc(C#N)c3nccnc23)CC(F)(F)C1` (stereo not shown) [Compound 506, 2-Chloro-N-[1-(8-cyano-quinoxalin-5-yl)-5,5-difluoro-piperidin-3-yl]-propionamide], the IC50 fell in the range of 1 to 10 µM.

As to `CC(C(=O)N[C@@H]1C[C@H](C)CN(c2ccc(C(F)(F)F)c3ncccc23)C1)N1CC(O)C1` (stereo partly drawn) [Compound 285, 2-(3-hydroxyazetidin-1-yl)-N-[(3R,5S)-5-methyl-1-[8-(trifluoromethyl)quinolin-5-yl]piperidin-3-yl]propanamide], the IC50 is under 1 µM.

Turning to `N#Cc1ccc(N2CC(N)CC(F)(F)C2)c2nccnc12` (single isomer, unassigned) [Compound 76], the IC50 was 1 to 10 µM.

With `C[C@H]1C[C@@H](NC(=O)CC2(C)CCN(C)CC2)CN(c2ccc(C(F)(F)F)c3ncccc23)C1` [Compound 245, 2-(1,4-dimethylpiperidin-4-yl)-N-[(3R,5S)-5-methyl-1-[8-(trifluoromethyl)quinolin-5-yl]piperidin-3-yl]acetamide], the IC50 is under 1 µM.

Turning to `C[C@H]1C[C@@H](NC(=O)CN2CC(N)C2)CN(c2ccc(C#N)c3nccnc23)C1` [Compound 356, 2-(3-aminoazetidin-1-yl)-N-[(3R,5S)-1-(8-cyanoquinoxalin-5-yl)-5-methylpiperidin-3-yl]acetamide], the IC50 is under 1 µM.

On to `C[C@H]1C[C@@H](NC(=O)CN2CCOCC2)CN(c2ccc(F)c3ncccc23)C1` [Compound 470, N-[(3R,5S)-1-(8-Fluoro-quinolin-5-yl)-5-methyl-piperidin-3-yl]-2-morpholin-4-yl-acetamide], for which the IC50 lay within 1 to 10 µM.

As for `C[C@H]1C[C@@H](NC(=O)[C@H](N)CO)CN(c2ccnc3nccnc23)C1` [Compound 107, (2R)-2-amino-3-hydroxy-N-[(3R,5S)-5-methyl-1-[pyrido[2,3-b]pyrazin-8-yl]piperidin-3-yl]propanamide], the IC50 is over 10 µM.

With `C[C@H]1C[C@@H](NCC(=O)O)CN(c2ccc(C(F)(F)F)c3ncccc23)C1` [Compound 571, [(3R,5S)-5-Methyl-1-(8-trifluoromethyl-quinolin-5-yl)-piperidin-3-ylamino]-acetic acid], the IC50 is 1 to 10 µM.

For `CN[C@@H]1C[C@H](C)CN(c2ccnc3nccnc23)C1` [Compound 17, (3R,5S)—N,5-dimethyl-1-(pyrido[2,3-b]pyrazin-8-yl)piperidin-3-amine], the IC50 was over 10 µM.

Consider `CC1(C)C[C@@H](N)CN(c2ccc(C#N)c3nccnc23)C1` [Compound 210, 8-[(5R)-5-amino-3,3-dimethylpiperidin-1-yl]quinoxaline-5-carbonitrile hydrochloride], for which the IC50 is under 1 µM.

Take `C[C@H]1C[C@@H](NC(=O)CN2CCOCC2)CN(c2ccc(Cl)c3ncccc23)C1` [Compound 262, N-[(3R,5S)-1-(8-chloroquinolin-5-yl)-5-methylpiperidin-3-yl]-2-(morpholin-4-yl)acetamide]: the IC50 is under 1 µM.

Consider `CC1(C)C[C@@H](NC(=O)C(N)C(F)(F)F)CN(c2ccc(C#N)c3nccnc23)C1` (single isomer, unassigned) [Compound 211], for which the IC50 lay within 1 to 10 µM.

As to `C[C@H]1C[C@@H](NC(=O)CC2CC2(F)F)CN(c2ccc(C(F)(F)F)c3nccnc23)C1` (stereo partly drawn) [Compound 298, 2-(2,2-difluorocyclopropyl)-N-[(3R,5S)-5-methyl-1-[8-(trifluoromethyl)quinoxalin-5-yl]piperidin-3-yl]acetamide], the IC50 was under 1 µM.
